Values of other authors, collected in patent US8329734B2, “Topical therapy for migraine” (AFGIN Pharma LLC, priority 2009, dated 2012).

Row | crossing of intact blood-brain barrier (in vivo) | metabolism (in vivo) | oral bioavailability (oral) [%] | SMILES
1 | does cross an intact blood-brain barrier | metabolized by the MAO system | – | CN(C)CCc1c[nH]c2ccc(C[C@H]3COC(=O)N3)cc12 [zolmitriptan]
2 | – | – | ~70 | CNS(=O)(=O)CCc1ccc2[nH]cc(C3CCN(C)CC3)c2c1 [naratriptan]
3 | – | metabolized by the MAO system | – | CN(C)CCc1c[nH]c2ccc(Cn3cncn3)cc12 [rizatriptan]
4 | – | metabolized by the MAO system | – | CNS(=O)(=O)Cc1ccc2[nH]cc(CCN(C)C)c2c1 [Sumatriptan, 3-(2-(dimethylamino)ethyl)-N-methyl-1H-indole-5-methanesulfonamide]
